Measured values as given in patent US4913909A, “Complex of tea-leaf extract and active aluminum hydroxide” (Mitsui Norin Co., Ltd., priority 1986, dated 1990).

How the values were obtained:
[1] = tested on: indomethacin-induced ulcers (glandular stomach) of rats; assay: therapeutic effect against indomethacin ulcers of rats (method of Somogi et al.); type: in vivo, male rats of Wistar strain; conditions: indomethacin 25 mg/kg, 100 mg/kg p.o., 7 hours
Protocol: The complexes prepared in Examples 1 and 2, referred to as ATM and AEGCg, respectively, hereinbelow, were tested for the therapeutic activity against gastric ulcers of rats such as pylorus-ligated or indomethacin-induced ulcers.
Separately, according to the method of Somogi, et al. disclosed in J. Pharm. Pharmac., volume 21, page 122 (1969), a group of light male rats of Wistar strain each having a body weight of about 200 g were used to test the therapeutic effect of the complexes against indomethacin ulcers. Each of the rats belonging to the test group was, after 24 hours of fasting, orally administered with ATM or AEGCg suspended in a 5% solution of gum arabic followed by oral administration of indomethacin in a dose of 25 mg/kg body weight after 30 minutes from the administration of the ATM or AEGCg. After 7 hours abstinence from food and water, the rat was killed and the stomach was excised and incised along the greater curvature to measure the length of the ulcers appearing on the glandular stomach. The overall length of the ulcers is given in Table 2 below as the ulcer index. The control group was treated in the same manner as above excepting ATM or AEGCg in the gum arabic solution.

acute oral toxicity = assay: acute oral toxicity; parameters: species or system male mice of ddY strain; conditions: mouse, in vivo, male ddY mice, fasted overnight, read-out: 50% lethal dose (LD50)
Description: Lastly, ATM and AEGCg were subjected to the test of acute toxicity by male mice of ddY strain each having a body weight of 20 to 25 g. After fasting overnight, the mice were orally administered with ATM or AEGCg with varied doses to determine the 50% lethal dose (LD50).

[2] = tested on: gastric juice / peptic activity in rats; assay: antipeptic activity or effect on secretion of gastric juice in pylorus-ligated rats (method of Shay et al.); type: in vivo, male rats of Wistar strain; conditions: 200 mg/kg p.o., 6 hours
Protocol: Further, the complexes were subjected to the test for the antipeptic activity or the effect on the secretion of gastric juice in rats according to the method of Shay, et al. Thus, a group of eight male rats of Wistar strain each having a body weight of about 200 g were used as the test animals. After 24 hours of fasting, the stomach of each rat was ligated at the pyloric part under etherization. Immediately after the ligation, the rat was orally administered with ATM or AEGCg suspended in a 5% solution of gum arabic. After 6 hours of abstinence from food and water, the rat was again etherized to take out the stomach as ligated at the cardiac end. The gastric juice in the stomach was put to centrifugal separation to give a supernatant of which the volume, overall acidity and overall peptic activity were measured to give the results shown in Table 3.

[3] = tested on: pylorus-ligated ulcers (forestomach) of rats; assay: therapeutic activity against pylorus-ligated gastric ulcers of rats (method of Shay et al.); type: in vivo, male rats of Wistar strain; conditions: 100 mg/kg p.o., 18 hours
Protocol: After fasting 48 hours each rat was put to etherization and the stomach was ligated at the pyloric part. Immediately after the ligation, the rat was orally administered with a suspension of the ATM or AEGCg in a 5% solution of gum arabic. The control group was fed only the solution of gum arabic without either ATM or AEGCg. After 18 hours of abstinence from food and water, the rat was killed and the stomach was excised and incised along the greater curvature to examine the condition of ulcer appearing on the forestomach.

## CN/C(=N/CCSCc1nc[nH]c1C)NC#N [Cimetidine]
[1]; overall length of ulcers
  Ulcer index (mm): 13.3 ± 2.8 mm
[1]; ulcer index vs control
  Suppression (%): 62.4%

## O=C(O[C@@H]1Cc2c(O)cc(O)cc2O[C@@H]1c1cc(O)c(O)c(O)c1)c1cc(O)c(O)c(O)c1 [EGCg, (-)-epigallocatechin gallate]
Acute oral toxicity
  LD50: 2500 mg/kg

## Sucralfate
[2]
  Overall acidity (mEq/liter): 85.4 ± 3.8 mEq/liter
  Peptic activity (mg tyrosine): 585.3 ± 68.0 mg tyrosine
  Volume of gastric juice (ml/rat): 7.98 ± 0.39 ml/rat
[2]; peptic activity vs control
  Suppression (%): 35.0%
[3]
  Ulcer index: 2.86 ± 0.40
[3]; ulcer index vs control
  Suppression (%): 41.5%
